The text below walks through data of ChEMBL document CHEMBL1909549, “Synthesis, pharmacophore modeling and in vitro activity of 10,11-dihydrodibenzo[b,f]oxepine-4-carboxamide derivatives as novel and potent antagonists of the prostaglandin EP4 receptor” (Bioorg Med Chem Lett, 2011).

SMILES strings stand for the structures. Activity calls are given as the source filed them. No cut-off for these calls is given here.

The target in data set [1] is T1, Cytochrome P450 3A4 (Homo sapiens, UniProt P08684). Briefly: Inhibition of recombinant human CYP3A4 using diethoxyfluorescein as substrate at 3 uM by fluorimetry. The class given is ADME. The conditions noted are these: recombinant enzyme.
In data set [2] the target is T2, Prostaglandin E2 receptor EP4 subtype (Homo sapiens, UniProt P35408). Briefly: Agonist activity at human EP4 receptor expressed in HEK293 cells assessed as potentiation of cAMP accumulation by bead-based proximity assay in absence of PGE2. The class given is functional, cell-based. (In general: Changes in cAMP serve as a functional read-out for many G protein-coupled receptors.)

Data set [3] has as its target T1, Cytochrome P450 3A4. Briefly: Inhibition of recombinant human CYP3A4 using 7-benzyloxy-4-trifluoromethyl coumarin as substrate at 3 uM by fluorimetry. The class given is ADME. Conditions: recombinant enzyme.
Another data set has as its target CYP2C9 (Homo sapiens, UniProt P11712). Briefly: Inhibition of recombinant human CYP2C9 at 3 uM by fluorimetry. The class given is ADME.
For data set [4], the target named is Prostaglandin E2 receptor EP2 subtype (Homo sapiens, UniProt P43116). Briefly: Displacement of [3H]-PGE2 from human EP2 receptor expressed in HEK293 cells. The class given is cell-based. For orientation: In a radioligand displacement assay an active substance lowers the binding of a labelled ligand.
The target in another data set is Cytochrome P450 2C19 (Homo sapiens, UniProt P33261). Briefly: (§1) Inhibition of recombinant human CYP2C19 at 3 uM by fluorimetry. The class given is ADME. The conditions noted are these: recombinant enzyme, 3 µM.
The target of data set [5] is T2, Prostaglandin E2 receptor EP4 subtype. Briefly: Antagonist activity at human EP4 receptor expressed in HEK293 cells assessed as inhibition of PGE2-induced cAMP accumulation by bead-based proximity assay. The data set is classed as functional, cell-based.
A further data set addresses T3, Cytochrome P450 1A2 (Homo sapiens, UniProt P05177).
T3 sequence (P05177 whole entry): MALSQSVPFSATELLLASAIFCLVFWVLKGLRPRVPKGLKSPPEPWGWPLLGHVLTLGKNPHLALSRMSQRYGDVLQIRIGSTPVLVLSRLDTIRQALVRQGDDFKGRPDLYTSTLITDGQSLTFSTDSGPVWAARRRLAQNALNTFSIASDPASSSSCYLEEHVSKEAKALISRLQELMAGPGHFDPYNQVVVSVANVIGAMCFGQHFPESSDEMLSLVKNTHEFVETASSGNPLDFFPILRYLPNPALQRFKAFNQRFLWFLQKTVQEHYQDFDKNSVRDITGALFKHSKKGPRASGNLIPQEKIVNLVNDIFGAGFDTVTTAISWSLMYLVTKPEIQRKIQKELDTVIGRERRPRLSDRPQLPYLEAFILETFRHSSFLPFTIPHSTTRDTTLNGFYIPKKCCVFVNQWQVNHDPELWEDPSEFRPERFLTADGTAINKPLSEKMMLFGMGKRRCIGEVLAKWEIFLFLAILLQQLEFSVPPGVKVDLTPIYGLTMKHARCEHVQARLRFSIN
Briefly: Inhibition of recombinant human CYP1A2 at 3 uM by fluorimetry. The class given is ADME. Conditions: recombinant enzyme.

In data set [6] the target is T2, Prostaglandin E2 receptor EP4 subtype. Briefly: Ratio of CJ-42794 IC50 to compound IC50 for human EP4 receptor expressed in HEK293 cells. The data set is classed as cell-based.
Data set [7] has the same target. Briefly: Displacement of [3H]-PGE2 from human EP4 receptor expressed in HEK293 cells. The data set is classed as cell-based.
A further data set deals with Cytochrome P450 2D6 (Homo sapiens, UniProt P10635). Briefly: Inhibition of recombinant human CYP2D6 at 3 uM by fluorimetry. The class given is ADME. The conditions noted are these: recombinant enzyme.
For a further data set, the target named is CYP2C19 (Homo sapiens, UniProt P33261). The data set is described as §1. The class given is ADME. Conditions: recombinant human CYP2C19.

As a reminder, the inhibition is how much of the control response was suppressed. A word on the IC50: it is the concentration needed to halve the response being measured.

Chain of Prostaglandin E2 receptor EP2 subtype (P43116 whole entry): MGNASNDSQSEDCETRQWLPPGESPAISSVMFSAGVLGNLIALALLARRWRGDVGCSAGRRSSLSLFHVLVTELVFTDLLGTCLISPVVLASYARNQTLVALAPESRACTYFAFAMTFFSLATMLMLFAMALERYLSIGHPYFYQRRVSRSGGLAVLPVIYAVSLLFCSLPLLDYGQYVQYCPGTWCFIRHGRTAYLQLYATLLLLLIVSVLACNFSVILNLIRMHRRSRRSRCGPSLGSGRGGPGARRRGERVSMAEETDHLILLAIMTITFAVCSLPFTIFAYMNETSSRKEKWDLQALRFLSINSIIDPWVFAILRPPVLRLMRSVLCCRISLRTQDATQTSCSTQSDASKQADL
T1 sequence (P08684 whole entry): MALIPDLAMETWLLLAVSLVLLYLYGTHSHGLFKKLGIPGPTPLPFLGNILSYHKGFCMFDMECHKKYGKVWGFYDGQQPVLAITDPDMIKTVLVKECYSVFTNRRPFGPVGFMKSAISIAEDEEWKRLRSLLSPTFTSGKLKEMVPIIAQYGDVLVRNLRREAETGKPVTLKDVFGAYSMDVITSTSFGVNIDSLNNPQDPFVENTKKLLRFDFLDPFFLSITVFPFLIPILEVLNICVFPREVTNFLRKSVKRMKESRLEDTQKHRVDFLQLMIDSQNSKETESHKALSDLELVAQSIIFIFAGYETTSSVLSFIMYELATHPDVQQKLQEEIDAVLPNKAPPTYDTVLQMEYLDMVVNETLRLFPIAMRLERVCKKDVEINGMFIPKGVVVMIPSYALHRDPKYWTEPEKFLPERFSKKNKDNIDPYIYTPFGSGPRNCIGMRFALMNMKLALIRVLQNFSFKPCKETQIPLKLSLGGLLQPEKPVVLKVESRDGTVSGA
T2 sequence (P35408 whole entry): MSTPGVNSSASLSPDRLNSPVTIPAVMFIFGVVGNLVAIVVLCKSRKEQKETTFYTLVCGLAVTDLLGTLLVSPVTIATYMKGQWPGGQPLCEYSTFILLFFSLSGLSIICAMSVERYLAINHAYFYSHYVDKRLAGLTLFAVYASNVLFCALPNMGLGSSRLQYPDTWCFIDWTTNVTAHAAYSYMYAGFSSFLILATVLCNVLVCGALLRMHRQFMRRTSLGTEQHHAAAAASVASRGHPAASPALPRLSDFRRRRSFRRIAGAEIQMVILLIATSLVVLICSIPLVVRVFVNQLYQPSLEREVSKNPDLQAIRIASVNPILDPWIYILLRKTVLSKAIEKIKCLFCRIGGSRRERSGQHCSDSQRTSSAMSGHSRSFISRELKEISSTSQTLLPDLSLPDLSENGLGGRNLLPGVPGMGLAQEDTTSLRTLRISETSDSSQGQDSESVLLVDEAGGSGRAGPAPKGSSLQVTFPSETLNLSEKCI
Chain of CYP2C9 (P11712 whole entry): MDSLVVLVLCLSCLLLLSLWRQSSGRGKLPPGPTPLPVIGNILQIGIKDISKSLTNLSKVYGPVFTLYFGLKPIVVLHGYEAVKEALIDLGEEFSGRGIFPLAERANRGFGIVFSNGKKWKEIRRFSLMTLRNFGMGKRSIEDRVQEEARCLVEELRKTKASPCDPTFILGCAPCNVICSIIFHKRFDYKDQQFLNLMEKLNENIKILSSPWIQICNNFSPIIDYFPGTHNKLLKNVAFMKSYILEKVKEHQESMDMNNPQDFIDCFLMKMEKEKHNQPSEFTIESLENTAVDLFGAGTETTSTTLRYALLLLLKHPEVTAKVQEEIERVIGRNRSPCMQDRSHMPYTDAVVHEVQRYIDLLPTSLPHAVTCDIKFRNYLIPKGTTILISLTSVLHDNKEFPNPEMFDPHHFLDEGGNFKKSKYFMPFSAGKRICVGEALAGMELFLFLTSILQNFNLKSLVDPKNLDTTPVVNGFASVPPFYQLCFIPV
Chain of Cytochrome P450 2D6 (P10635 whole entry): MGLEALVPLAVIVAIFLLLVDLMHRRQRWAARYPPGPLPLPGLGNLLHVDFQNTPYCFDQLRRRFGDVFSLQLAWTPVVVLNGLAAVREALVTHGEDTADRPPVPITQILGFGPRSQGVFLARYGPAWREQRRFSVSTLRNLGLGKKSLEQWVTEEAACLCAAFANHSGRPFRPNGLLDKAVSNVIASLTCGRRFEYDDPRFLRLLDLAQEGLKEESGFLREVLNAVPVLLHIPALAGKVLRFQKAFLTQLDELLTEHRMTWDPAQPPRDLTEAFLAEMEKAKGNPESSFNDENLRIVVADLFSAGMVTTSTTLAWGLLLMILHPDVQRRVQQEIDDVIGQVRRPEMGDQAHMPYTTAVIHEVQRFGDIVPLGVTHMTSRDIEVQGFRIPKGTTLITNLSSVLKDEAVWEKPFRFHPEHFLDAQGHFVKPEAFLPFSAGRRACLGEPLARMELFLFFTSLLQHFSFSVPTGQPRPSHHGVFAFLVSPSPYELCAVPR
Chain of CYP2C19 (P33261 whole entry): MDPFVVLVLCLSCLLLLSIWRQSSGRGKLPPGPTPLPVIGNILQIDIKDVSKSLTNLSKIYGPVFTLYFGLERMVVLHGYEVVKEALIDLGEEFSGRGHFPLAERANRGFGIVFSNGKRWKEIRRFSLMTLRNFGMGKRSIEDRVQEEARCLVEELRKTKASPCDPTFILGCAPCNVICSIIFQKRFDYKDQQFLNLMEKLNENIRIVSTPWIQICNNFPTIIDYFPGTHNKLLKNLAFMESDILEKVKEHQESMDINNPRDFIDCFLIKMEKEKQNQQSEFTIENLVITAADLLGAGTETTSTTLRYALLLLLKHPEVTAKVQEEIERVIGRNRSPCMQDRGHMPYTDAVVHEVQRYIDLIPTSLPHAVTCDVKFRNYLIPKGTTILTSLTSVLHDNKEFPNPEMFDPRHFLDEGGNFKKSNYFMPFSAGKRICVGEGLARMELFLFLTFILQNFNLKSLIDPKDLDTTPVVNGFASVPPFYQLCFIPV
Chain of Cytochrome P450 2C19 (P33261 whole entry): as above

Take `C[C@H](NC(=O)c1cccc2c1Oc1cc(C(F)(F)F)ccc1CC2)c1ccc(C(=O)O)cc1`: the “inhibition (INH)” value at Cytochrome P450 3A4 [1], at Cytochrome P450 3A4 [3], at Cytochrome P450 2C19, on Cytochrome P450 1A2 and on Cytochrome P450 2D6 was “Not Active” in each case. Besides, in data set [2], the outcome was inactive. Further, at CYP2C9, the inhibition at 3 µM came out at 21%. The concentration for half-maximal inhibition (IC50) in data set [4] was greater than 1000 nM; in data set [5] it was 20 nM; in data set [7] it was 2 nM. Moreover, in [6], the Ratio IC50 turned out to be 5.

On to `C[C@H](NC(=O)c1cc(Cl)ccc1Oc1ccc(F)cc1)c1ccc(C(=O)O)cc1`, for which the half-maximal inhibitory concentration (IC50) was greater than 1000 nM in [4], 13 nM in [5] and 10 nM in [7].

For `O=C(O)c1ccc(C2(NC(=O)c3cccc4c3Oc3ccc(C(F)(F)F)cc3CC4)CC2)cc1`, the “inhibition (INH)” value at Cytochrome P450 3A4 [1], at Cytochrome P450 3A4 [3], on Cytochrome P450 1A2 and at Cytochrome P450 2D6 was “Not Active” in each case. For the same compound, the outcome in data set [2] was inactive. The values for the inhibition at 3 µM at CYP2C9 and at CYP2C19 were 26% and 13%, respectively. In addition, the figures for the IC50 in [4], in data set [5] and in data set [7] were greater than 1000 nM, 34 nM and 27 nM, respectively.

Regarding `C[C@H](NC(=O)c1cccc2c1Oc1ccc(C(F)(F)F)cc1CC2)c1ccc(C(=O)O)cc1`, the “inhibition (INH)” value on Cytochrome P450 3A4 [1], on Cytochrome P450 3A4 [3], on Cytochrome P450 1A2 and at Cytochrome P450 2D6 was “Not Active” in each case. For the same compound, the outcome in data set [2] was inactive. The inhibition at 3 µM came to 17% on CYP2C9 and 11% on CYP2C19. Besides, the IC50 was greater than 1000 nM in [4], 42 nM in data set [5] and 63 nM in data set [7].

As to `O=C(O)c1ccc(C2(NC(=O)c3cccc4c3Oc3cc(C(F)(F)F)ccc3CC4)CC2)cc1`, the “inhibition (INH)” value on Cytochrome P450 3A4 [1], at Cytochrome P450 3A4 [3], on Cytochrome P450 2C19, at Cytochrome P450 1A2 and on Cytochrome P450 2D6 was “Not Active” in each case. In addition, the result in [2] was inactive. Further, the inhibition at 3 µM at CYP2C9 stood at 11%. Further, the 50% inhibitory concentration (IC50) in [4] is greater than 1000 nM; in [5], 1000 nM; in data set [7], 4 nM.
